From patent publication US20070128217A1 (priority 2003, published 2007)

What was measured:
[1] = system: antibodies in sera from SARS patients (sera 1a, 1b, 2, 6, 37, 62, London, SARS-yellow, SARS-green); assay type: binding, human; set-up: Binding of serum 6 to linear peptides of protein X1 of SARS-CoV Urbani / Binding of serum 37 to linear peptides of protein X1 of SARS-CoV Urbani / Binding of serum 6 to looped/cyclic peptide (PEPSCAN-ELISA) / Binding of serum 37 to looped/cyclic peptide (PEPSCAN-ELISA) / Binding of serum 37 to looped/cyclic peptides of protein X1 of SARS-CoV Urbani / Binding of serum 6 to linear peptides of protein X2 / Binding of serum 37 to linear peptides of protein X2 / Binding of serum 37 to looped/cyclic peptides of protein X2 of SARS-CoV Urbani / Binding of serum 6 to linear peptides of protein M of SARS-CoV Urbani / Binding of serum 37 to linear peptides of protein M of SARS-CoV Urbani / Binding of serum 6 to looped/cyclic peptides of protein M of SARS-CoV Urbani / Binding of serum 37 to looped/cyclic peptides of protein M of SARS-CoV Urbani / Binding of serum 6 to linear peptides of protein X3 of SARS-CoV Urbani / Binding of serum 37 to linear peptides of protein X3 of SARS-CoV Urbani / Binding of serum 37 to looped/cyclic peptides of protein X3 of SARS-CoV Urbani / Binding of serum 6 to linear peptides of protein X4 of SARS-CoV Urbani / Binding of serum 37 to linear peptides of protein X4 of SARS-CoV Urbani / Binding of serum 37 to looped/cyclic peptides of protein X4 of SARS-CoV Urbani / Binding of serum 6 to linear peptides of protein X5 of SARS-CoV Urbani / Binding of serum 37 to linear peptides of protein X5 of SARS-CoV Urbani / Binding of serum 37 to looped/cyclic peptides of protein X5 of SARS-CoV Urbani / Binding of serum 6 to linear peptides of protein N of SARS-CoV Urbani / Binding of serum 37 to linear peptides of protein N of SARS-CoV Urbani / Binding of serum 6 to linear peptide (PEPSCAN-ELISA) / Binding of serum 1a to looped/cyclic peptides of protein N of SARS-CoV Urbani / Binding of serum 1b to looped/cyclic peptides of protein N of SARS-CoV Urbani / Binding of serum 2 to looped/cyclic peptides of protein N of SARS-CoV Urbani / Binding of serum 6 to looped/cyclic peptides of protein N of SARS-CoV Urbani / Binding of serum 37 to looped/cyclic peptides of protein N of SARS-CoV Urbani / Binding of serum 62 to looped/cyclic peptides of protein N of SARS-CoV Urbani / Binding of serum London to looped/cyclic peptides of protein N of SARS-CoV Urbani / Binding of serum SARS-green to looped/cyclic peptides of protein N of SARS-CoV Urbani: unit not given here
[2] = system: control sera (pooled serum of ten healthy LUMC hospital workers; commercial negative donor pooled serum from the Dutch bloodbank); assay type: binding, human; set-up: Binding of Control serum LUMC to linear peptides / Binding of Control serum Blood-bank to linear peptides / Binding of Control serum LUMC to looped peptides / Binding of Control Serum Blood-Bank to Looped peptides / Binding of Control serum LUMC to linear peptides of the protein M of SARS-CoV Urbani / Binding of Control serum Blood-bank to linear peptides of the protein M of SARS-CoV Urbani / Binding of Control serum LUMC to looped peptides of the protein M of SARS-CoV Urbani / Binding of Control Serum Blood-Bank to Looped peptides of the protein M of SARS-CoV Urbani: unit not given here
[3] = system: rabbit serum obtained by immunizing a rabbit with the SARS-CoV strain Frankfurt 1; assay type: binding; set-up: Binding of a rabbit serum to linear peptides / Binding of a rabbit serum to looped peptides / Rabbit serum linear peptides / Rabbit serum looped peptides / Binding of a rabbit serum to linear peptides of protein N of SARS-CoV Urbani (Rabbit serum linear peptides) / Binding of a rabbit serum to looped/cyclic peptides of protein N of SARS-CoV Urbani (Rabbit serum looped peptides): unit not given here
[4] = system: recombinant human anti-SARS-CoV antibody 03-018; assay type: binding; set-up: Binding of antibody 03-018 to linear peptides of the N protein of SARS-CoV Urbani / Binding of antibody 03-018 to looped/cyclic peptides of the N protein of SARS-CoV Urbani: unit not given here

Row | Sequence | Binding of serum 1a to linear peptide (PEPSCAN-ELISA) [1] | Binding of serum 1a to looped/cyclic peptides of protein N of SARS-CoV Urbani [1] | Binding of serum 1b to linear peptide (PEPSCAN-ELISA) [1] | Binding of serum 1b to looped/cyclic peptides of protein N of SARS-CoV Urbani [1] | Binding of serum 2 to linear peptide (PEPSCAN-ELISA) [1] | Binding of serum 2 to looped/cyclic peptides of protein N of SARS-CoV Urbani [1] | Binding of serum 6 to looped/cyclic peptides of protein N of SARS-CoV Urbani [1] | Binding of serum 37 to looped/cyclic peptides of protein N of SARS-CoV Urbani [1] | Binding of serum 62 to looped/cyclic peptides of protein N of SARS-CoV Urbani [1] | Binding of serum London to looped/cyclic peptides of protein N of SARS-CoV Urbani [1] | Binding of serum SARS-green to looped/cyclic peptides of protein N of SARS-CoV Urbani [1] | Binding of serum SARS-yellow to looped/cyclic peptides of protein N of SARS-CoV Urbani [1] | Binding of Control Serum Blood-Bank to Looped peptides [2] | Binding of Control serum Blood-bank to linear peptides [2] | Binding of Control serum LUMC to linear peptides [2] | Binding of Control serum LUMC to looped peptides [2] | Binding of a rabbit serum to linear peptides of protein N of SARS-CoV Urbani (Rabbit serum linear peptides) [3] | Binding of a rabbit serum to looped/cyclic peptides of protein N of SARS-CoV Urbani (Rabbit serum looped peptides) [3] | Binding of antibody 03-018 to linear peptides of the N protein of SARS-CoV Urbani [4] | Binding of antibody 03-018 to looped/cyclic peptides of the N protein of SARS-CoV Urbani [4] | other results
1 | KVSGKGQQQQGQTVT | 0.3 | 0.3 | 0.1 | 0.2 | 0.3 | 0.5 | 0.3 | 0.4 | 0.4 | 0.6 | 0.5 | 0.3 | 0.6 | 0.8 | 0.7 | 0.5 | 0.2 | 0.4 | 0.1 | 0.2 | Binding of serum 6 to linear peptide (PEPSCAN-ELISA) [1]: 0.2; Binding of serum 37 to linear peptide (PEPSCAN-ELISA) [1]: 0.6; Binding of serum 62 to linear peptide (PEPSCAN-ELISA) [1]: 0.6; Binding of serum London to linear peptide (PEPSCAN-ELISA) [1]: 0.5; Binding of serum SARS-green to linear peptide (PEPSCAN-ELISA) [1]: 0.6; Binding of serum SARS-yellow to linear peptide (PEPSCAN-ELISA) [1]: 0.6
2 | LALLLLDRLNQLESK | 0.2 | 0.3 | 0.1 | 0.2 | 0.1 | 0.4 | 0.2 | 0.5 | 0.5 | 0.4 | 0.6 | 0.4 | 0.7 | 0.7 | 0.6 | 0.6 | 0.1 | 0.6 | 0.1 | 0.2 | Binding of serum 6 to linear peptide (PEPSCAN-ELISA) [1]: 0.1; Binding of serum 37 to linear peptide (PEPSCAN-ELISA) [1]: 0.5; Binding of serum 62 to linear peptide (PEPSCAN-ELISA) [1]: 0.5; Binding of serum London to linear peptide (PEPSCAN-ELISA) [1]: 0.7; Binding of serum SARS-green to linear peptide (PEPSCAN-ELISA) [1]: 0.4; Binding of serum SARS-yellow to linear peptide (PEPSCAN-ELISA) [1]: 0.5
3 | LESKVSGKGQQQQGQ | 0.3 | 0.4 | 0.1 | 0.3 | 0.2 | 0.7 | 0.5 | 0.7 | 0.6 | 1.8 | 0.4 | 0.7 | 0.8 | 0.8 | 0.7 | 0.7 | 0.1 | 0.6 | 0.1 | 0.3 | Binding of serum 6 to linear peptide (PEPSCAN-ELISA) [1]: 0.1; Binding of serum 37 to linear peptide (PEPSCAN-ELISA) [1]: 0.6; Binding of serum 62 to linear peptide (PEPSCAN-ELISA) [1]: 0.6; Binding of serum London to linear peptide (PEPSCAN-ELISA) [1]: 0.5; Binding of serum SARS-green to linear peptide (PEPSCAN-ELISA) [1]: 0.4; Binding of serum SARS-yellow to linear peptide (PEPSCAN-ELISA) [1]: 0.7
4 | LGTGPEASLPYGANK |  | 0.3 |  | 0.2 |  | 0.5 | 0.2 | 0.5 | 0.4 | 0.4 | 0.4 | 0.5 | 0.5 | 0.9 | 0.9 | 0.6 | 0.2 | 0.4 | 0.1 | 0.2 | Binding of serum 1a to linear peptides of protein N of SARS-CoV Urbani [1]: 0.3; Binding of serum 1b to linear peptides of protein N of SARS-CoV Urbani [1]: 0.1; Binding of serum 2 to linear peptides of protein N of SARS-CoV Urbani [1]: 0.3; Binding of serum 6 to linear peptides of protein N of SARS-CoV Urbani [1]: 0.2; Binding of serum 37 to linear peptides of protein N of SARS-CoV Urbani [1]: 0.7; Binding of serum 62 to linear peptides of protein N of SARS-CoV Urbani [1]: 0.7; Binding of serum London to linear peptides of protein N of SARS-CoV Urbani [1]: 0.5; Binding of serum SARS-green to linear peptides of protein N of SARS-CoV Urbani [1]: 0.5; Binding of serum SARS-yellow to linear peptides of protein N of SARS-CoV Urbani [1]: 0.7
